Source: ChEMBL document CHEMBL2074380, “Pyronaridine, a novel modulator of P-glycoprotein-mediated multidrug resistance in tumor cells in vitro and in vivo” (Biochem Biophys Res Commun, 2004)

How the values were obtained:
Format in all cases: functional, cell-based
[1] = target: T1, ATP-dependent translocase ABCB1 (Homo sapiens, UniProt P08183); assay: TP_TRANSPORTER: drug resistance (doxorubicin) in MCF-7/ADR cells; details: nci/adr-res
[2] = target: T1, ATP-dependent translocase ABCB1; assay: TP_TRANSPORTER: drug resistance (doxorubicin) in K562/A02 cells
[3] = target: T1, ATP-dependent translocase ABCB1; assay: TP_TRANSPORTER: increase in Rhodamine 123 intracellular accumulation in K562/A02 cells

Measured: Activity

T1 sequence (P08183 whole entry): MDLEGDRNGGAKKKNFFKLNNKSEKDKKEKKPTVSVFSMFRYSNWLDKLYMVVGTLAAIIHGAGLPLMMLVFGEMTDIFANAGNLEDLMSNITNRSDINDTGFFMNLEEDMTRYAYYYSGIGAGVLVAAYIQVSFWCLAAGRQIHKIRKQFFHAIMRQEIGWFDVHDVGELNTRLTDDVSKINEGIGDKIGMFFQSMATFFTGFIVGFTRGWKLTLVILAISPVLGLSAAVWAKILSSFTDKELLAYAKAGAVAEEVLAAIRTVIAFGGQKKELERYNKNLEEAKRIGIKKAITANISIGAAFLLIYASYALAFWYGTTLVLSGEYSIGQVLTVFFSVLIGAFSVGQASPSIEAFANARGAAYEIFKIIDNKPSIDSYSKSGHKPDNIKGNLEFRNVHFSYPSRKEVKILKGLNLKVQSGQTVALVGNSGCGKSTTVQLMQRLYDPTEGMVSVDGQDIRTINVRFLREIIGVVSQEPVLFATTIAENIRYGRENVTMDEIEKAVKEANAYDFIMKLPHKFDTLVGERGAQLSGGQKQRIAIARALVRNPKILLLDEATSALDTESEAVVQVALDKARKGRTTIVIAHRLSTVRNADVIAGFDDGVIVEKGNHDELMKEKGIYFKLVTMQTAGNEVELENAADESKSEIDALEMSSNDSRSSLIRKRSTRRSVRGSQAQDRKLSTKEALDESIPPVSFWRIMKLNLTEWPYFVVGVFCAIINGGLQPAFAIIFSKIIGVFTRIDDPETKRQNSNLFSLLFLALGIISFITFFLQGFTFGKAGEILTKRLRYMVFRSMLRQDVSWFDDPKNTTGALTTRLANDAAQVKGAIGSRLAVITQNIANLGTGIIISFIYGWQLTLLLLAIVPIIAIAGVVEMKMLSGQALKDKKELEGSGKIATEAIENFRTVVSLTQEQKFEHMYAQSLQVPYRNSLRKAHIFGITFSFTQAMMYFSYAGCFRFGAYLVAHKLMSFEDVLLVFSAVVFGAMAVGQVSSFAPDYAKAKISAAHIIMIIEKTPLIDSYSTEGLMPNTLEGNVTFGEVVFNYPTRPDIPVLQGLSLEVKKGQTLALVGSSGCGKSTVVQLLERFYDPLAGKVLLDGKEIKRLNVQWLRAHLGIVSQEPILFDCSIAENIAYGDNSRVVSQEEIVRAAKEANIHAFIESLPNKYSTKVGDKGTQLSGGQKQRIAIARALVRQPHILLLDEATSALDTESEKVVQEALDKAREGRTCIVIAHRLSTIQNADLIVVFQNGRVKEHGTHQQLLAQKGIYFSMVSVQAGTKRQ

COc1ccc2nc3cc(Cl)ccc3c(Nc3cc(CN4CCCC4)c(O)c(CN4CCCC4)c3)c2n1 [PYRONARIDINE]
inhibitor [+]: all assays above
